Literature values, collected in paper PMC5320730, “Synthetic curcumin derivative DK1 possessed G2/M arrest and induced apoptosis through accumulation of intracellular ROS in MCF-7 breast cancer cells” (Cancer Cell International, 2017).

Test system: MCF-7 cells
Details: cited from earlier work

Row | Compound | SI (normal vs cancerous cell line) | SI value (on MCF-7)
1 | 4-hydroxy tamoxifen | < 2 | 
2 | O=C1c2ccccc2C(=O)c2c(O)cc(Br)cc21 [BHAQ, 3-Bromo-1-hydroxy-9,10-anthraquinone] |  | 2.31
